Where two headings read alike, the source gives them in different places.
How the values were obtained:
Test in all cases: Kinase selectivity, P33-radiolabeled assay
Assay type in all cases: biochemical
Conditions in all cases: 10 μM ATP
ERK7/MAPK15 = molecular target: T1, ERK7/MAPK15 (Homo sapiens, UniProt Q8TD08)
T1 construct: purchased Reaction Biology Corp
T1 sequence (Q8TD08 1-544): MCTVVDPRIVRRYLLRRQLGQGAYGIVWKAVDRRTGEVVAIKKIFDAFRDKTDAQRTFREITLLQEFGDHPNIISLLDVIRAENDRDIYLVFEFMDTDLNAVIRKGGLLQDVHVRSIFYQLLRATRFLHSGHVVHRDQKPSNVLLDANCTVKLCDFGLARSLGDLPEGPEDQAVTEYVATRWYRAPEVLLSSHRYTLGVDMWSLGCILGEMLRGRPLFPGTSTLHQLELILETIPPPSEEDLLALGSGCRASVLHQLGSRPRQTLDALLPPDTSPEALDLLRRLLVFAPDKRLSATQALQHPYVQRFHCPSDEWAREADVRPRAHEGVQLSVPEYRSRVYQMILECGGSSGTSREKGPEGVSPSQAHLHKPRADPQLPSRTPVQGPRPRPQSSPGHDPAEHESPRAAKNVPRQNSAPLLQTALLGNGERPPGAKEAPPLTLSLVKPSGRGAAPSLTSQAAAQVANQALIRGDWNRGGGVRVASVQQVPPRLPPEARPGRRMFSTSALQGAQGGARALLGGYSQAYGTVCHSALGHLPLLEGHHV
In short: (§1)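 Each enzyme was exposed to 10 μM compound, with duplicate measurements, in reactions containing 10 μM ATP. Numbers are remaining activity as a percent of the vehicle (DMSO) signal.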

LKB1 = molecular target: T2, LKB1 (Homo sapiens, UniProt Q15831)
T2 construct: purchased Reaction Biology Corp
T2 sequence (Q15831 1-433): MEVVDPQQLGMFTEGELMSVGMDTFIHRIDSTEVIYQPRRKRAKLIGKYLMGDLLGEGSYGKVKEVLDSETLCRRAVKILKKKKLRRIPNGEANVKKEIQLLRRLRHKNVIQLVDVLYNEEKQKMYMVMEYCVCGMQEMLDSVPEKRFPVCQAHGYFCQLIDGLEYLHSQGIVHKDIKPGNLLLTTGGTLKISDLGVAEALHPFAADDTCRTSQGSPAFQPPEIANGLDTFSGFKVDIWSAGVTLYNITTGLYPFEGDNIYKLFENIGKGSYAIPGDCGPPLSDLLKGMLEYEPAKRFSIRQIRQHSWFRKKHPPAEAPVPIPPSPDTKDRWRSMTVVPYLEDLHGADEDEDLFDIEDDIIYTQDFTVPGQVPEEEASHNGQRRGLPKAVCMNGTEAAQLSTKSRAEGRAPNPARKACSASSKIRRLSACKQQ
T2 sequence (Q7RTN6 1-431 partner): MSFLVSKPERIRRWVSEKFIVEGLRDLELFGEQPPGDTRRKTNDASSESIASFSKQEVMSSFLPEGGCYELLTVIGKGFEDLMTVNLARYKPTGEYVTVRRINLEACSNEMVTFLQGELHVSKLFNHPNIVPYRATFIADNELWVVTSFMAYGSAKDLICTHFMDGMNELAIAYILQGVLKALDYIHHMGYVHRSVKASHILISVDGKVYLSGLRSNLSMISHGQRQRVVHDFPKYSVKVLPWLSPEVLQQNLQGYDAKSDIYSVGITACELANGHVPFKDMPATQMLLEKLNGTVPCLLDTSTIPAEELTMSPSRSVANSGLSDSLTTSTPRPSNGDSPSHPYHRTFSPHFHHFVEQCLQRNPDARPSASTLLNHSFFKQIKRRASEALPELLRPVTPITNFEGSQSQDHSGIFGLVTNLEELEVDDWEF
T2 sequence (Q9Y376 1-341 partner): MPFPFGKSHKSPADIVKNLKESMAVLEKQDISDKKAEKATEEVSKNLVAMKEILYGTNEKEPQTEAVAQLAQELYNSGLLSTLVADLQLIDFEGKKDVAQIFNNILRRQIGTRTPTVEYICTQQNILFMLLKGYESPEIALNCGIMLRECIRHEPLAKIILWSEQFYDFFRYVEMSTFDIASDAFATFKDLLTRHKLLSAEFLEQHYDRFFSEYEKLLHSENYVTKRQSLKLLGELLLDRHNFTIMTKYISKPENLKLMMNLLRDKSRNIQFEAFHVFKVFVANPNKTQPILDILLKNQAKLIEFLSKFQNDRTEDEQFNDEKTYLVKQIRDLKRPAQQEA
In short: as §1

EPHB1 = molecular target: T3, EPHB1 (Homo sapiens, UniProt P54762)
T3 construct: purchased Reaction Biology Corp
T3 sequence (P54762 18-984): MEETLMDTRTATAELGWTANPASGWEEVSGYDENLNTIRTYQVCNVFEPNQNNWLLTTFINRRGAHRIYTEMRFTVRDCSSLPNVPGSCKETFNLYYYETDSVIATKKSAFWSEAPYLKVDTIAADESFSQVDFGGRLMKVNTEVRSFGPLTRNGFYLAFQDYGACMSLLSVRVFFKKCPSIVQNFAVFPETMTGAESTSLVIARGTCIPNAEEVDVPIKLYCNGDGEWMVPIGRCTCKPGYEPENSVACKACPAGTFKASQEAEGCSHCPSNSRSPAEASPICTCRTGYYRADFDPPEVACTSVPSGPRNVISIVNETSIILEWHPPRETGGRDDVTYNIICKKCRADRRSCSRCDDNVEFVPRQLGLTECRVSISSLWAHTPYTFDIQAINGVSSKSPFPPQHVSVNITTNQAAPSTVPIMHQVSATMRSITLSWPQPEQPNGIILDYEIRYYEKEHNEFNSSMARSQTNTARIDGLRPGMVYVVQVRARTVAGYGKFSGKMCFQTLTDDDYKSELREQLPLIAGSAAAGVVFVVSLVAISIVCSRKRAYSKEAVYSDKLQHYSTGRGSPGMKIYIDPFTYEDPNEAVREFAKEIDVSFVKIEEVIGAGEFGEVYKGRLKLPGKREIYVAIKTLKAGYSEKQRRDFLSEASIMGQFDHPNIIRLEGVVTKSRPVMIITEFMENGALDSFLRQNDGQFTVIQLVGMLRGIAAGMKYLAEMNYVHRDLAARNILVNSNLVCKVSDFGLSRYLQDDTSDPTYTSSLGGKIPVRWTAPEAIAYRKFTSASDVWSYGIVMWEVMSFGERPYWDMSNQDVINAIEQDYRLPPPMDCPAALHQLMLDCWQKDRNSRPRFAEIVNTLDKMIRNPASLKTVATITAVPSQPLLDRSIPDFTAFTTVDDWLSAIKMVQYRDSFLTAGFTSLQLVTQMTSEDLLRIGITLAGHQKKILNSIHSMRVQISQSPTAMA
In short: as §1

CDK9/cyclin K = molecular target: T4, CDK9/cyclin K (Homo sapiens, UniProt P50750)
T4 construct: purchased Reaction Biology Corp
In short: as §1

[1] = read-out: % Enzyme Activity (relative to DMSO controls) AVG
[2] = read-out: % Enzyme Activity (relative to DMSO controls) Data 1
[3] = read-out: % Enzyme Activity (relative to DMSO controls) Data 2

T4 sequence (P50750 whole entry): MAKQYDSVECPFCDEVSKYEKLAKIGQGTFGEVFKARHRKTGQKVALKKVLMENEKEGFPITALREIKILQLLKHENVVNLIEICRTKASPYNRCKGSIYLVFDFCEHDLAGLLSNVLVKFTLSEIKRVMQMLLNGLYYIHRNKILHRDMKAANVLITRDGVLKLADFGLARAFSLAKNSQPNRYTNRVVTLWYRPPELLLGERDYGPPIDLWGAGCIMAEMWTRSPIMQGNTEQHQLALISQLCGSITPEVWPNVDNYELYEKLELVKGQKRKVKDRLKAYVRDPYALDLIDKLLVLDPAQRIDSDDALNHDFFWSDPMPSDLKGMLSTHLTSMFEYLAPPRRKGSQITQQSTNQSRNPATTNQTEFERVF
T4 sequence (O75909 whole entry partner): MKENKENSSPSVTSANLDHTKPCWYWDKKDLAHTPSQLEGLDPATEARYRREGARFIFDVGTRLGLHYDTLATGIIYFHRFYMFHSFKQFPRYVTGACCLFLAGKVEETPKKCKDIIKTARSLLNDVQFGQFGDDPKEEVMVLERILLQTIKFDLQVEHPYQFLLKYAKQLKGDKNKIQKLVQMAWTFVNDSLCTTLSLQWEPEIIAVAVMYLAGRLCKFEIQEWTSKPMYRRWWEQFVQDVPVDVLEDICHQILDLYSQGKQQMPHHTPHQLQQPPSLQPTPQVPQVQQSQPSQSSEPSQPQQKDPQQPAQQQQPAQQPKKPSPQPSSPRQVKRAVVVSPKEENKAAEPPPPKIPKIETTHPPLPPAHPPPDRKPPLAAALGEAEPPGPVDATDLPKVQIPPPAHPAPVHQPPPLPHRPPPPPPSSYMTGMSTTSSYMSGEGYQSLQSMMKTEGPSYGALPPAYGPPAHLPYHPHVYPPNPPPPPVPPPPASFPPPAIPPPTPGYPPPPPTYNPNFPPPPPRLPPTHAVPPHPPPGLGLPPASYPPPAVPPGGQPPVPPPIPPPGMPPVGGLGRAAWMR

CC(C)(C)C(=O)N1N=CC[C@H]1c1ccccc1 [GSK′963]
remaining activity at 10 µM (ERK7/MAPK15; [1]): 112% | remaining activity at 10 µM (ERK7/MAPK15; [2]): 113% | remaining activity at 10 µM (ERK7/MAPK15; [3]): 111% | remaining activity at 10 µM (LKB1; [1]): 105% | remaining activity at 10 µM (LKB1; [2]): 105% | remaining activity at 10 µM (LKB1; [3]): 106% | remaining activity at 10 µM (EPHB1; [1]): 99.4% | remaining activity at 10 µM (EPHB1; [2]): 98.8% | remaining activity at 10 µM (EPHB1; [3]): 100% | remaining activity at 10 µM (CDK9/cyclin K; [1]): 114% | remaining activity at 10 µM (CDK9/cyclin K; [2]): 112% | remaining activity at 10 µM (CDK9/cyclin K; [3]): 116%

From publication PMC4979471 (Cell Death Discovery, 2015)
